Source: paper PMC10382935 (The Cell Surface, 2023)

Target: T1, CRD DC-SIGN (carbohydrate recognition domain of DC-SIGN, 15N labelled) (Homo sapiens, UniProt Q9NNX6)
T1 sequence (Q9NNX6 250-404 limits assumed): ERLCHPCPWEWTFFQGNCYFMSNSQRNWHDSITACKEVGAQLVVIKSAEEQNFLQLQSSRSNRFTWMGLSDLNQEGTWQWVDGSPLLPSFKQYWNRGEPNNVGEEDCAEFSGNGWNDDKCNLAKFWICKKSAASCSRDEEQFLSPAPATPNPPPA
Test: 1H, […]-HSQC NMR titration
Format: binding

| SMILES | Kd [µM] |
| --- | --- |
| NCCCO[C@H]1O[C@H](CO)[C@@H](O)[C@H](O)[C@@H]1O[C@H]1O[C@H](CO)[C@@H](O)[C@H](O)[C@@H]1O[C@H]1O[C@H](CO)[C@@H](O)[C@H](O[C@H]2O[C@H](CO)[C@@H](O)[C@H](O)[C@@H]2O[C@H]2O[C@H](CO)[C@@H](O)[C@H](O)[C@@H]2O)[C@@H]1O [compound 29, pentasaccharide 29] | ~600 |
| NCCCO[C@H]1O[C@H](CO)[C@@H](O)[C@H](O)[C@@H]1O[C@H]1O[C@H](CO)[C@@H](O)[C@H](O)[C@@H]1O[C@H]1O[C@H](CO)[C@@H](O)[C@H](O)[C@@H]1O[C@H]1O[C@H](CO)[C@@H](O)[C@H](O[C@H]2O[C@H](CO)[C@@H](O)[C@H](O)[C@@H]2O[C@H]2O[C@H](CO)[C@@H](O)[C@H](O)[C@@H]2O)[C@@H]1O [compound 30, hexasaccharide 30] | ~1100 |
